Data on two compounds can be found in patent publication US6346529B1, “Antiviral therapy using thiazine dyes” (Oklahoma Medical Research Foundation, priority 1988, dated 2002).

SMILES strings stand for the structures. Read-outs that look alike come from different tables or passages of the source.

What all share (type): cell-based
For one test, the system named is HSV-1 (F strain). As to the kind of experiment: HSV plaque reduction assay in Vero cells, HSV-1. Particulars: read-out: Antiviral Effect: EC50 HSV-1. The protocol: (§1) HSV Preparation: Confluent HEp-2 cells, in a roller bottle (Falcon, 850 cm^2), were infected at an input multiplicity of 0.01 PFU per cell (to minimize production of defective viruses). During the two-hour absorption period, the cells were exposed to the virus inoculum diluted in absorption buffer (10 ml PBS containing 1% newborn calf serum and 0.1% glucose). The virus inoculum was then removed and replaced with Hanks' Minimum Essential Medium (MEM) containing 2% inactivated newborn calf serum, penicillin (100 U/ml) and streptomycin (100 μg/ml) (P and S), sodium bicarbonate (2 g/L) and HEPES (25 mM) (maintenance medium). The infected cells were incubated at 37° C. for 3 to 4 days, until the cells could be easily shaken from the plastic surface of the culture bottles. The cells were then collected by centrifugation, suspended in a small volume of spent culture fluid (5 ml per 2×10^8 cells) and sonicated 3 times for one min on ice. The disrupted cells were centrifuged (2,000 g for 15 min at 4° C. and the supernatant was diluted with an equal volume of sterile skimmed milk (as stabilizer) and aliquots were frozen at −70° C.
(§2) HSV Plaque Reduction Assay: Near confluent Vero (African Green Monkey) cells in 6-well plates were infected with 100 μl virus diluted in absorption buffer to give 100-200 plaques per well. The plates were then incubated at 37° C. for 1 hour with intermittent rocking every 15 minutes. The inoculum was aspirated and the compounds at different concentrations (dissolved in maintenance medium) were added to replicate wells. For these assays, 0.1% pooled human gamma globulin was included in the media. The plates were placed in 5% CO2-95% air incubator and the plaques were allowed to develop for 48 h prior to fixation (buffered 10% Formalin acetate), staining (0.5% crystal violet in 20% EtOH/H2O) and enumeration. The degree of inhibition (percent plaques of control) was calculated by counting the mean plaque counts for the different drug dilutions. […] For routine antiviral drug screening, we used the F strain of HSV-1 and the G strain of HSV-2 (Ejercito, et al., “Characterization of Herpes Simplex virus Strains Differing in Their Effect on Social Behavior of Infected Cells,” J. Gen. Virol. 2, 357-364 (1968)). […] Acyclovir (ACV) was used as a positive control for the studies on HSV.
(§3) Median-Effect Method: EC50 and IC50 values were obtained by analysis of the data using the median-effect equation (Chou, T., et al., “Quantitative Analysis of Dose-Effect Relationships: The Combined Effects of Multiple Drugs or Enzyme Inhibitors,” Adv. Enz. Regul. 22, 27-55 (1984).

The next test relates to HIV-1 (strain LAV-1). Briefly: Inhibition of HIV-1 replication in human PBMC (supernatant RT activity). Particulars: Human immunodeficiency virus 1, PBMC. The protocol: Cells: Human peripheral blood mononuclear cells (PBMC) from healthy HIV-1 seronegative and hepatitis B virus seronegative donors were isolated by Ficoll-Hypaque discontinuous gradient centrifugation at 1,000×g for 30 minutes, washed twice in phosphate-buffered saline (pH 7.2; PBS), and pelleted at 300×g for 10 minutes. Before infection, the cells were stimulated by phytohemagglutinin (PHA) at a concentration of 16.7 μg/ml, and 4 mM sodium bicarbonate buffer.
Retrovirus: HIV-1 (strain LAV-1) was obtained from Dr. P. Feorino (Centers for Disease Control, Atlanta, Ga.). The virus was propagated in human PBMC using RPMI 1640 medium, as described previously by McDougal, et al., (“Immunoassay for the detection and quantitation of infectious human retrovirus, lymphadenopathy-associated virus (LAV),” J. Immun. Meth. 76, 171-183, 1985) without PBA or fungizone and supplemented with 7% (v/v) interleukin-2 (Advanced Biotechnologies, Silver Spring, Md.), 7 μg/ml DEAE-dextran (Pharmacia, Uppsala, Sweden), and 370 U/ml anti-human leukocyte (alpha) interferon (ICN, Lisle, Ill.). Virus obtained from cell-free culture supernatant was titrated and stored in aliquots at −70° C. until use.
Inhibition of Virus Replication in Human PBMC: Uninfected PHA-stimulated human PBMC were uniformly distributed among 25 cm^2 flasks to give a 5 ml suspension containing about 2×10^6 cells/ml. Suitable dilutions of virus were added to infect the cultures. The mean reverse transcriptase (RT) activity of the inocula was 50,000 dpm/ml corresponding to about 100 TCID50, as determined by Groopman, et al., (1987), “Characterization of Serum Neutralization Response to the Human Immunodeficiency Virus (HIV),” AIDS Res. Human Retro. 3, 71-85. The drugs, at twice their final concentrations in 5 ml of RPMI 1640 medium (supplemented as described above), were added to the cultures. Uninfected and untreated PBMC at equivalent cell densities were grown in parallel as controls. The cultures were maintained in a humidified 5% CO2-95% air incubator at 37° C. for six days after infection at which point all cultures were sampled for supernatant RT activity.
RT Activity Assay: A […] aliquot of supernatant from each culture was clarified of cells at 300×g for 10 minutes. […]
The RT assay was performed in 96-well microtiter plates, as described by Spira, et al. (1987), “Micromethod for Assaying the Reverse Transcriptase of LAV-HTLV-III/Lymphadenopathy-Associated Virus,” J. Clin. Microbiol. […] Four ml of scintillation fluid (Econofluor, NEN Research Products, Boston, Mass.) were added and the amount of radioactivity in each sample was determined using a Packard Tri-Carb liquid scintillation analyzer (model 2,000CA). […]

The test system of the next test is HSV-2 (G strain). As to the kind of experiment: HSV plaque reduction assay in Vero cells, HSV-2. Particulars: read-out: Antiviral Effect: EC50 HSV-2. The protocol: as §1, §2, §3

For orientation: EC50 means the concentration that produces a half-maximal response. Turning to `Nc1nc2c(ncn2COCCO)c(=O)[nH]1` [ACV, Acyclovir], the EC50 with HSV-1 (F strain) (Human alphaherpesvirus 1, Vero, dark) is 13 nM; in the test on HSV-1 (F strain) (Human alphaherpesvirus 1, Vero, light), 22 nM; in the test on HIV-1 (strain LAV-1) (light, read-out: Antiviral Effect: EC50 HIV-1), greater than 100000 nM; in the test on HSV-2 (G strain) (Human alphaherpesvirus 2, Vero, dark), 160 nM; with HSV-2 (G strain) (Human alphaherpesvirus 2, Vero, light), 510 nM.
`CN(C)c1ccc2nc3ccc(N(C)C)cc3[s+]c2c1.[Cl-]` [MB, 3,7-Bis(dimethylamino)phenothiazin-5-ium chloride]: the EC50 was no less than 10000 nM with HSV-1 (F strain) (Human alphaherpesvirus 1, Vero); no less than 10000 nM with HSV-1 (F strain) (dark); 140 nM in the test with HIV-1 (strain LAV-1) (read-out: Antiviral Effect: EC50 HIV-1, dark); 28 nM with HIV-1 (strain LAV-1) (read-out: Antiviral Effect: EC50 HIV-1, light); no less than 10000 nM in the test on HSV-2 (G strain) (Human alphaherpesvirus 2, Vero); no less than 10000 nM in the test on HSV-2 (G strain) (dark).
